# Assay results as given in US20090317501A1, “Pinus Pinea Plant Extracts For Treating Osteoporosis and the Extraction Process Thereof” (priority 2006, published 2009).
# Test system: osteoclastic bone resorption
# Assay: Bone resorption screening, CTX release by osteoclasts on bovine bone slices
# Assay type: cell-based, human
# Conditions: positive control; DMSO negative control set to 100%; 5 days incubation
# From the text: Studies have determined that osteoclasts are largely derived from CD14 positive monocytes (J. Haemotol, 1999 July; 106(1):167-70). Clonal analysis of haematopoietic cells by surface phenotypes has been used to further identify osteoclast precursor by characterizing osteoclast like cells distinct from other haematopoietic progenitors (Lee et.al; 1992b Muguruma & Lee; 1988). Surface phenotype analysis has shown that human osteoclasts are derived from CD14 monocytes (Massey & Flanagan, 1999). CD 14 marker is strongly expressed on monocytes, the putative osteoclast precursor in peripheral blood and CD14 positive monocytes have been selected for osteoclastogenesis. (Clin. Sci (Lond) 2000, August, 99 (2): 133-40).
# The osteoclasts were isolated as CD 14 positive monocytes and were differentiated into osteoclasts for 10-12 days. Hereafter the osteoclasts were lifted by trypsin, counted and seeded on bovine bone slices at a density of 40,000 cells per bone slice. The osteoclasts were seeded on the cone slices for one day before the plant extracts were added. The osteoclasts were hereby allowed to attach and initiate the resorption activity. […]
# The bone resorption experiment was ended after 5 days of incubation and the cell viability was measured by the use of the Alamar blue assay as represented in FIG. 3. […]
smiles,measurement,value
CO/C1=C\C(C)=C\[C@@H](C)[C@@H](O)[C@@H](C)C/C(C)=C/C=C/[C@H](OC)[C@@H]([C@@H](C)[C@@H](O)[C@H](C)[C@@]2(O)C[C@@H](O)[C@H](C)[C@@H](C(C)C)O2)OC1=O [Bafilomycin],remaining bone resorption (CTX release) as % of DMSO control,approximately 8%
